What all share (type): cell-based, mouse
Data set [1] has as its system iNOS mRNA expression. Briefly: RT-PCR analysis of LPS-induced iNOS mRNA expression. As to conditions: LPS treatment.
The subject of data set [2] is LPS-activated NO production in RAW 264.7 macrophages. In words: Inhibition of LPS-induced NO production (nitrite, Griess reagent assay). Conditions: for NO inhibition (in words): LPS-induced NO production in RAW 264.7; for IC50: Mus musculus, read-out: IC50 NO. As to the method: (§1) Mouse macrophage cell line (RAW 264.7) was obtained from Bioresource Collection and Research Center (BCRC 60001) and cultured at 37 °C in Dulbecco’s Modified Eagle’s Medium (DMEM) supplemented with 10% fetal bovine serum (Gibco), 4.5 g/L glucose, 4 mM glutamine, penicillin (100 units/mL), and streptomycin (100 μg/mL) in a humidified atmosphere in a 5% CO2 incubator. The cells were treated with 10, 25, 50 μM natural products in the presence of 1 μg/mL LPS (lipopolysaccharide, Sigma-Aldrich, St. Louis, MO, USA) for 20 h. The concentration of NO in culture supernatants was determined as nitrite, a major stable product of NO, by Griess reagent assay, and cell viabilities were determined using the MTT assay as described previously.
On the technique in general: Griess reagent forms a coloured azo dye with nitrite.

Data set [3] is described as follows: Cell viability, MTT assay. On the set-up: concentration or dose not given beside the values. Conditions: mouse. As for the experimental part:
as §1
A general note: Tetrazolium dyes change colour on reduction, which living cells bring about.

The test system of data set [4] is RAW 264.7 cells. In words: Cell viability, MTT assay. Further details: concentration or dose not given beside the values. As for the experimental part:
as §1

Setting [5] is: RAW264.7, RAW 264.7 macrophages, 1 μg/mL LPS, 20 h, mean ± SEM (n = 4) of 3 independent experiments.
[6] abbreviates: RAW 264.7 macrophage cells, RAW 264.7 macrophages, MTT assay, mean ± SEM, read-out: Cell Viability (% Control).
Where [7] appears, read: RAW 264.7 macrophage cells, RAW 264.7, MTT assay, read-out: cell viability.

Structures are written as SMILES. Where two headings read alike, the source gives them in different places. Bounds are passed on as bounds.

In the case of `CC(C)c1cc2c(c(O)c1O)[C@@]1(C)CCC(=O)C(C)(C)C1[C@@H](O)[C@H]2O` (stereo partly drawn) [Compound 3, 6α,7α,11-trihydroxy-3-oxoferrugiol], the “effect on LPS-increased iNOS mRNA expression” value in data set [1] is given as “inhibited this increase in a concentration-dependent manner”. The “NO inhibition (in words)” value in data set [2] is on record as “showed inhibitory activities”. Besides, the IC50 (commonly the midpoint of a concentration-inhibition curve) in data set [2] (RAW264.7, 20 h) came to 17.5 ± 1.85 µM. Besides, the viability – broadly, a read-out of living cells in per cent, often relative to untreated cells – at 20 h in data set [3] (Cell Viability (% Control)) is 95.5 ± 3.39%; in data set [3] (cell viability), more than 80%. The cell viability (in general, the share of living cells, or the viability signal relative to a control) in data set [4] (mouse, 20 h) is on record as more than 95%.

`C[C@@H]1[C@@H](O)CC2C(C)(C)C3CC21CC[C@@]3(C)O` (relative stereo) [Compound 10, (2S*,3S*,6R*)-3,6,8,8-tetramethyloctahydro-1H-3a,7-methanoazulene-2,6-diol]: in data set [2] (setting [5]), the IC50 is more than 100 µM. Also, the viability at 20 h in data set [3] (setting [6]) was determined as 89.5 ± 2.15%.

Regarding `CC1(C)CCc2cc(-c3ccc(O)cc3)cc(O)c2O1` [I], the “NO inhibition (in words)” value in data set [2] was “showed inhibitory activities”.

In the case of `CC(=O)OCC(C)(O)C1CCC(C)C12CC=C(C)CC2` (stereo not drawn) [Compound 2, 12-acetoxy-11-hydroxyacora-3-ene], the “NO inhibition (in words)” value in data set [2] is “less effective NO inhibition”. Further, the IC50 in data set [2] (setting [5]) was determined as 34.2 ± 1.97 µM. Besides, the viability at 20 h in data set [3] (setting [6]) worked out at 99.6 ± 5.53%.

On to `CC1(C)CCC2C(=CC1=O)CCC1C(C)(C(=O)O)CCCC21C` (stereo not drawn) [Compound 6, 12(13→15)abeo-13-oxo-8(14)-abietene-18-oic acid], for which the IC50 in data set [2] (setting [5]) was 24.8 ± 12.9 µM. Further, the viability at 20 h in data set [3] (setting [7]) is less than 80%; in data set [3] (setting [6]), 76.3 ± 5.48%.

Consider `COc1cc(CCCOC(C)=O)cc(OC)c1O` [Compound 7, amycolataiwanensin G], for which the half-inhibitory concentration (IC50) in data set [2] (setting [5]) is 12.8 ± 4.82 µM. Moreover, the figures for the viability at 20 h in data set [3] (setting [7]) and in data set [3] (setting [6]) were less than 80% and 56.3 ± 3.91%, respectively.

In the case of `O=c1c(O)c(-c2ccc(O)c(O)c2)oc2cc(O)cc(O)c12` [Quercetin, quercetin, reference compound], the IC50 in data set [2] (setting [5]) is 35.9 ± 2.34 µM. Besides, in data set [3] (setting [6]), the viability at 20 h amounted to 94.1 ± 1.32%.

On to `CC(C)=CCCC1(C)C=Cc2cc(-c3ccc(O)cc3)cc(O)c2O1` (stereo not drawn) [Compound 8, amycolataiwanensin H], for which the “effect on LPS-increased iNOS mRNA expression” value in data set [1] was “inhibited this increase in a concentration-dependent manner”. Also, in data set [2] (setting [5]), the 50% inhibitory concentration (IC50) is 17.8 ± 1.13 µM. Moreover, the viability at 20 h was more than 80% in data set [3] (setting [7]) and 95.9 ± 1.32% in data set [3] (setting [6]). Besides, in data set [4] (RAW 264.7, MTT assay), the “cell viability” value is more than 95%.

On to `CC(O)c1ccc2c(c1)CCC1[C@](C)(C(=O)O)CCC[C@]21C` (stereo partly drawn) [E], for which the “NO inhibition (in words)” value in data set [2] is reported as “showed inhibitory activities”.

For `CC(C)C1=C(O)C(=O)C2=C(CCC3C(C)(C)[C@@H](O)CC[C@]23C)C1=O` (stereo partly drawn) [Compound 4, amycolataiwanensin D], the concentration for half-maximal inhibition (IC50) in data set [2] (setting [5]) is 24.8 ± 1.63 µM. The viability at 20 h in data set [3] (setting [6]) was determined as 91.1 ± 4.22%.

Take `CC1(C)CCc2cc(-c3ccc(O)cc3)cc(O)c2O1` [Compound 9, 6-(4-hydroxyphenyl)-2,2-dimethylchroman-8-ol]: the “effect on LPS-increased iNOS mRNA expression” value in data set [1] is listed as “inhibited this increase in a concentration-dependent manner”. The IC50 in data set [2] (setting [5]) was 13.3 ± 0.51 µM. The values for the viability at 20 h in data set [3] (setting [7]) and in data set [3] (setting [6]) were more than 80% and 98 ± 1.53%, respectively. In addition, the “cell viability” value in data set [4] (RAW 264.7, MTT assay) was more than 95%.

For `CC(O)c1ccc2c(c1)CCC1[C@](C)(C(=O)O)CCC[C@]21C` (relative stereo) [Compound 5, (1R*,4aS*)-7-(1-hydroxyethyl)-1,4a-dimethyl-1,2,3,4,4a,9,10,10a-octahydrophenanthrene-1-carboxylic acid], in data set [1], the “effect on LPS-increased iNOS mRNA expression” value is recorded as “inhibited this increase in a concentration-dependent manner”. Besides, the half-inhibitory concentration (IC50) in data set [2] (setting [5]) came to 12.3 ± 4.97 µM. Besides, the viability at 20 h in data set [3] (setting [7]) was more than 80%; in data set [3] (setting [6]), 82.2 ± 3.21%. The “cell viability” value in data set [4] (RAW 264.7, MTT assay) is more than 95%.

With `CC(C)=CCCC1(C)C=Cc2cc(-c3ccc(O)cc3)cc(O)c2O1` (stereo not drawn) [H], the “NO inhibition (in words)” value in data set [2] was “showed inhibitory activities”.
